Results from patent US10010576B2, “Method of treatment” (Hexima Limited, priority 2014, dated 2018).

Columns and labels:
[1] = test system: C. albicans; assay: Antifungal growth inhibition assay in 96 well microtitre plates (A595); format: cell-based, Candida albicans
Method: (§1) The inhibitory effects of the plant defensins on the growth of Trichophyton rubrum, T. interdigitale, Microsporum fulvum and C. albicans (obtained from the National Mycology Reference Centre, South Australia Pathology at the Women's and Children's Hospital, Adelaide, Australia) are measured essentially as described by Broekaert et al. (1990) FEMS Microbiol Lett 69:55-59. Spores of T. rubrum, T. interdigitale and M. fulvum are isolated from sporulating fungus growing on 1⁄2 strength Sabouraud dextrose agar (SDA). Spores were removed from the plates by the addition of 1⁄2 strength potato dextrose broth (PDB). C. albicans cells are grown in Yeast Peptone Broth (YPD) for 16 h. Spore and cell concentrations are measured using a hemocytometer. Antifungal assays are conducted in 96 well microtitre plates essentially as herein described. Wells are loaded with 20 μm L of filter sterilized (0.22 μm syringe filter, Millipore) defensin (10× stock for each final concentration) or water and 80 μm L of 5×10^4 spores/mL (T. rubrum, T. interdigitale, M. fulvum) or 5,000 cells/mL (C. albicans) in 1⁄2 strength PDB. The plates are incubated at 30° C. Fungal growth is assayed by measuring optical density at 595 nm ([…]) using a microtitre plate reader (SpectraMax Pro M2; Molecular Devices. Growth is allowed to proceed until the optical density (OD) of the fungus in the absence of any test defensin reached an OD of 0.2. Each test is performed in duplicate.

[2] = test system: Microsporum fulvum; assay: as above; format: cell-based
Method: as §1

[3] = test system: Human monocytic lymphoma (U937) cells; format: cell-based
Method: Human monocytic lymphoma (U937) cells are cultured in RPMI-1640 medium. All culture media are supplemented with 5-10% v/v fetal calf serum, 100 U/ml of penicillin, and 100 μg/ml of streptomycin. Cell lines are cultured at 37° C. in a humidified atmosphere containing 5% v/v CO2. Adherent cell lines are detached from the flask by adding a mixture containing 0.25% v/v trypsin and […] EDTA. A flow cytometry-based propidium iodide (PI) uptake assay is performed to analyze the ability of plant defensins to permeabilize U937 cells (essentially as described in Poon et al, 2014). Briefly, cells are suspended to 1×10^6 cells/ml in 0.1% v/v BSA/RPMI-1640 and incubated with plant defensins (10 μM) at 37° C. for 30 min Samples are added to PBS containing a final concentration of 1 μg/ml PI and placed on ice. Samples are then analyzed immediately using the BD FACSCanto II Flow Cytometer and BD FACSDiva software v6.1.1. The resultant flow cytometry data is analyzed using FlowJo software v8.8.6. Cells are gated appropriately based on forward scatter and side scatter and cell permeabilization is defined by PI-positive staining.

[4] = test system: Trichophyton rubrum, T. interdigitale, Microsporum fulvum and C. albicans; assay: Inhibition assays, summary across the range of fungal pathogens; format: cell-based; conditions: summary of Table 3
Method: as §1

[5] = test system: Trichophyton rubrum; assay: Antifungal growth inhibition assay in 96 well microtitre plates (A595); format: cell-based
Method: as §1

[6] = Penetration through human nails (nail adapter, wetted cotton bud receptor, RP-HPLC); format: in vitro ADME
Method: Penetration of NaD1 through human nails was measured according to the method of Hui et al. (2002) J Pharm Sci 91(1):189-195. Human toenails were obtained from ScienceCare (USA) and washed with phosphate buffered saline (details, PBS) before being placed on a kimwipe that had been soaked in PBS for 3 h to rehydrate the nail. […]
The cotton bud in contact with the underside of the nail was removed after 24 h and every 24 h following. Protein that had passed through the nail was recovered from the cotton bud by washing twice with 500 μL of 0.1% v/v trifluoroacetic acid. Recovered protein was quantified using RP-HPLC.

[7] = test system: T. interdigitale; assay: Antifungal growth inhibition assay in 96 well microtitre plates (A595); format: cell-based, Trichophyton interdigitale
Method: as §1

[8] = Day 3, 10 uL of 10% solution, 0.8 cm^2, daily application
[9] = Day 6, 10 uL of 10% solution, 0.8 cm^2, daily application
[10] = Day 9, 10 uL of 10% solution, 0.8 cm^2, daily application
[11] = Day 12, 10 uL of 10% solution, 0.8 cm^2, daily application
[12] = Day 15, 10 uL of 10% solution, 0.8 cm^2, daily application

Compound | IC50 against C. albicans [1] [µg/mL] | IC50 against M. fulvum [2] [µg/mL] | Cells permeabilized (PI-positive) [3] | Antifungal activity across the range of fungal pathogens [4] | IC50 against T. rubrum [5] [µg/mL] | IC50 against T. interdigitale [7] [µg/mL] | further results
HXL003: Class I plant defensin from Triticum aestivum, SEQ ID NO:6 (ARDCTSQSHKFVGLCLSDRNCASVCLTEYFTGGKCDHRRCVCTKGC; HXL003 Triticum aestivum) | >100 | >100 |  |  |  |  | 
HXL002: Class I plant defensin from Triticum aestivum, SEQ ID NO:5 (RDCLSQSHKFKGACLSSSNCAAVCRTENFPDGECHTHNFARKCFCKRAC; HXL002 Triticum aestivum) | 35 | 50 | less than 2% |  |  |  | Inhibition of C. albicans [1]: very poor inhibitors; Inhibition of M. fulvum [2]: very poor inhibitors
HXL001: Class I plant defensin from Zea mays, SEQ ID NO:4 (RHCLSQSHRFKGLCMSSNNCANVCQTENFPGGECKAEGATRKCFCKKIC; HXL001 Zea mays) | 35 | >100 | less than 2% | did not display any activity at the concentrations tested | >100 |  | 
C=C1CCN([C@H](C)[C@](O)(Cn2cncn2)c2ccc(F)cc2F)CC1 [Efinaconazole, efinaconazole] |  |  |  |  |  |  | Cumulative amount through nail ([6]; human, 1 day, 10 %): 0.4 µg; Cumulative amount through nail, percent (line without head; fits percent of applied dose) ([6]; human, 1 day, 10 %): 0.2%; Cumulative amount through nail ([6]; human, 2 day, 10 %): 0.7 µg; Cumulative amount through nail, percent (line without head; fits percent of applied dose) ([6]; human, 2 day, 10 %): 0.4%; Cumulative amount through nail ([6]; human, 3 day, 10 %): 1.3 µg; Cumulative amount through nail, percent (line without head; fits percent of applied dose) ([6]; human, 3 day, 10 %): 0.7%; Cumulative amount through nail ([6]; human, 4 day, 10 %): 1.6 µg; Cumulative amount through nail, percent (line without head; fits percent of applied dose) ([6]; human, 4 day, 10 %): 0.8%; Cumulative amount through nail ([6]; human, 6 day, 10 %): 2.6 µg; Cumulative amount through nail, percent (line without head; fits percent of applied dose) ([6]; human, 6 day, 10 %): 1.3%; Cumulative amount through nail ([6]; human, 9 day, 10 %): 4.0 µg; Cumulative amount through nail, percent (line without head; fits percent of applied dose) ([6]; human, 9 day, 10 %): 2.0%; Cumulative amount through nail ([6]; human, 12 day, 10 %): 5.4 µg; Cumulative amount through nail, percent (line without head; fits percent of applied dose) ([6]; human, 12 day, 10 %): 2.7%; Cumulative amount through nail ([6]; human, 15 day, 10 %): 6.5 µg; Cumulative amount through nail, percent (line without head; fits percent of applied dose) ([6]; human, 15 day, 10 %): 3.3%
HXP4: Artificial defensin variant, Loop1B from a Class I defensin replaces that of a Solanaceous Class II defensin, SEQ ID NO:21 (RECKTESHRFKGPCITKPPCRKACISEKFTDGHCSKILRRCLCTKPC; HXP4) |  |  | 13% |  |  |  | 
HXL013: Class I plant defensin from Glycine max, SEQ ID NO:11 (KDCLTRRHGFQGRCLFDRQCAHVCRSDGFIGGQCRGPLRKCFCSRPC; HXL013 Glycine max) | 20 | 5.5 | 5% | intermediate activity | 22 |  | 
OB1OCc2cc(F)ccc21 [Tavaborole, tavaborole] |  |  |  |  |  |  | Cumulative amount through nail [6, 8]: 60 µg; Cumulative amount through nail, percent (line without head; fits percent of cumulative applied dose) [6, 8]: 2.0%; Cumulative amount through nail [6, 9]: 220 µg; Cumulative amount through nail, percent (line without head; fits percent of cumulative applied dose) [6, 9]: 3.7%; Cumulative amount through nail [6, 10]: 610 µg; Cumulative amount through nail, percent (line without head; fits percent of cumulative applied dose) [6, 10]: 6.8%; Cumulative amount through nail [6, 11]: 1280 µg; Cumulative amount through nail, percent (line without head; fits percent of cumulative applied dose) [6, 11]: 10.7%; Cumulative amount through nail [6, 12]: 2240 µg; Cumulative amount through nail, percent (line without head; fits percent of cumulative applied dose) [6, 12]: 14.9%
HXL012: Class I plant defensin from Amaranthus retroflexus, SEQ ID NO:10 (RMCKAPSKLFRGMCGIRDSNCDSVCRAEGMAAGDCHGLRRRCICSRPC; HXL012 Amaranthus retroflexus) | 42 | 18 | less than 2% | intermediate activity | 2 | 2 | Nail penetration [6]: did not penetrate the nail
HXL005: Class I plant defensin from Taraxcum kok-saghyz, SEQ ID NO:8 (Table 1) (KMCQTTSHAFSCVNDSGCSGSCEKQGFASGKCDGVRRRCTCYKKC; HXL005 Taraxcum kok-saghyz) | 22 | 5 | ~25% | the most effective plant defensins across the range of fungal pathogens | 3 | 3.5 | 
HXL009: Class I plant defensin from Zea mays, SEQ ID NO:9 (Table 1) (TVCMRHNNFYHGPCMSNKDCANSCVQHNLGVGGYCRGKIPFNKECMCTFEC; HXL009 Zea mays) | >100 | >100 | less than 2% | did not display any activity at the concentrations tested |  |  | 
HXL015: Class I plant defensin from Oryza sativa, SEQ ID NO:12 (RHCLSQSHRFKGMCVSSNNCANVCRTESFPDGECKSHGLERKCFCKKVC; HXL015 Oryza sativa) |  | 12.5 |  | intermediate activity | 10 | 3.5 | 
HXL035: Class I plant defensin from Picramnia pentandra, SEQ ID NO:2 (KVCTKPSKFFKGLCGFDRDCTVACKKEGLASGFCQNKGFFNVVCVCRKPC; HXL035 Picramnia pentandra) | 18 | 2 |  | the most effective plant defensins across the range of fungal pathogens | 2 | 1 | 
Cc1cc(C2CCCCC2)n(O)c(=O)c1 [Ciclopirox, ciclopirox] |  |  |  |  |  |  | Cumulative amount through nail ([6]; human, 3 day, 10 %): 1 µg; Cumulative amount through nail, percent (line without head; fits percent of cumulative applied dose) ([6]; human, 3 day, 10 %): 0.03%; Cumulative amount through nail ([6]; human, 6 day, 10 %): 2 µg; Cumulative amount through nail, percent (line without head; fits percent of cumulative applied dose) ([6]; human, 6 day, 10 %): 0.03%; Cumulative amount through nail ([6]; human, 9 day, 10 %): 4 µg; Cumulative amount through nail, percent (line without head; fits percent of cumulative applied dose) ([6]; human, 9 day, 10 %): 0.04%; Cumulative amount through nail ([6]; human, 12 day, 10 %): 6 µg; Cumulative amount through nail, percent (line without head; fits percent of cumulative applied dose) ([6]; human, 12 day, 10 %): 0.05%; Cumulative amount through nail ([6]; human, 15 day, 10 %): 9 µg; Cumulative amount through nail, percent (line without head; fits percent of cumulative applied dose) ([6]; human, 15 day, 10 %): 0.06%
